The values that follow come from patent US5646316A, “Bile acid inhibitors of metalloproteinase enzymes” (OsteoArthritis Sciences, Inc., priority 1995, dated 1997).

Assay [1] has as its system bovine cartilage explants. Nature of the assay: Bovine Cartilage Explant Assay (35S-GAG release, rhIL-1α stimulated; tissue culture). In kind it is cell-based. To be noted: Bos taurus, read-out: percent inhibition of extracellular matrix damage, Tissue Culture. From the text: A tissue culture assay was used to measure the ability of the compounds of the present invention to slow the degradation of the extracellular matrix by metalloproteinases. This assay measured the amount of ^35 S-glycosaminoglycan (^35 S-GAG) released from labeled bovine cartilage explants.
Knee joints from a 1 to 3 week old calf were obtained immediately after sacrifice from the Abattoir and then transported on ice. The intact joints were washed well with tap water and soaked in 50% (v/v) Povidine iodine solution, obtained from Burre National, Inc., Baltimore, Md. All subsequent steps were performed in a laminar flow tissue culture hood using standard sterile technique. The joint was immobilized in a shank holder and the joint capsule was cut open to expose the articular cartilage. Cartilage explant plugs, approximately 15 mg wet weight, were removed from the flat articulating surfaces in the lower-most region of the knee joint using a sterile steel cork-borer and collected in a 250 mL roller bottle containing about 100 mL fresh Delbecco's minimum essential medium (DMEM), obtained from Gibco BRC, Life Technologies, Gaithersburg, Md., containing 4.5 g/1 (D)-glucose and (L)-glutamine, without sodium pyruvate. The fresh media also contained enough Hepes buffer and sodium bicarbonate such that the pH was about 7.4. The media was then further supplemented just before use with 100 units Penicillin, 100 μg Streptomycin, and 50 μg (L)-ascorbic acid per mL of medium.
Once collected, the explant plugs were washed four times with 50 mL fresh DMEM. The plugs were then placed in the incubator for a minimum of 1 hour to equilibrate, before proceeding to make disks from the articulating surface of each plug. A 1 mm thick disk was sliced from individual plugs from the end that was the articulating surface of the joint. The plug was held steady in the sterile template (4 mm diameter×1.5 mm deep) using sterile forceps. A scalpel blade was used to carefully slice off the disk. Only the superficial articulating surface responded well in culture.
Individual disks obtained were transferred to a tissue culture flask containing about 100 mL fresh media. The flask containing the disks was placed in an incubator at 37° C. (with 5% CO2, 95% air) and allowed to equilibrate overnight and at least one additional day before labeling. When ready to label, the old media was replaced with 50 mL fresh media containing about 500 μCi ^35 S-Sodium Sulfate. The plugs were labeled in bulk for about 48 hours. The next morning, the "hot" media was removed and replaced with fresh "cold" media. The disks were again allowed to equilibrate overnight before being used for actual experiments.
The media in which the disks were stored was changed immediately prior to performing the assay. The disks were then returned to the incubator until the test media and the two control media had been prepared. The test media consisted of a bile acid or bile acid derivative (50 μM) being tested for its ability to inhibit extracellular matrix degradation and concomitant recombinant human Interleukin rhIL-1α (5 ng/mL) in fresh DMEM solution. The control media were identical to the test media, except that the first control media lacked rhIL-1α and the second control media lacked an inhibitor, i.e. a bile acid or bile acid derivative. 250 μL of each of the test and control media were transferred to separate 96-well TC plates. Flamed forceps were used to transfer a disk from the incubator to each 96-well TC plates that had been filled with either the test media or one of the two control media.
The TC plates were then placed in the incubator and cultured for 3-4 days (initial incubation with rhIL-1α alpha takes at least 3 days to stimulate endogenous metalloproteinases). A 50 μL aliquot of media from each TC plate was saved and counted. The rest of the media was removed with a suction device.
The cartilage disks from each TC plate were also saved for counting. […]

For assay [2], the target named is T1, gelatinase (72 (Kd) (Homo sapiens, UniProt P08253)).
T1 sequence (P08253 110-660): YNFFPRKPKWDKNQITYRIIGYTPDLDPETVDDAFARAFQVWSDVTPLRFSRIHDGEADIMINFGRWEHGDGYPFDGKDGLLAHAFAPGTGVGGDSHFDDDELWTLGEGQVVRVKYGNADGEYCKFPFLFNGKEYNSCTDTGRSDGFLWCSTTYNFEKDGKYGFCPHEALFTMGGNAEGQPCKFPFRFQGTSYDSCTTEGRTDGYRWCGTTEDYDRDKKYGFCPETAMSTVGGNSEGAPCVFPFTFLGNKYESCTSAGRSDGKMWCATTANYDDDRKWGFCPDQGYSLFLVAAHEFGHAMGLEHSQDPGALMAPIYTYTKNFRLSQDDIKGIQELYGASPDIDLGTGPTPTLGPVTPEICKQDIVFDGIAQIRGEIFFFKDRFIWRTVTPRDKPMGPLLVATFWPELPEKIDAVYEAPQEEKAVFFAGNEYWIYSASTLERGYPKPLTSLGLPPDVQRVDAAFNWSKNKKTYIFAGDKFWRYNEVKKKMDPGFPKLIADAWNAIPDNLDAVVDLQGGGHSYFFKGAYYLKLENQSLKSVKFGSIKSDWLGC
Nature of the assay: Assay of Gelatinase Inhibition Activity (72 Kd gelatinase). In kind it is biochemical. The note with it: for inhibition at 10 µM: read-out: percent inhibition of gelatinase. Here is the method: (§1) Stromelysin was first activated by trypsin. This was done by preparing a reaction mixture in B-150 (B-150 consists of 150 mM NaCl, 20 mM Tris at pH 7.8 and 0.02% sodium azide) containing a final concentration of 4 μg/mL trypsin, 1.48 μg/mL of stromelysin, and 3.15 mM CaCl2. The reaction was incubated for 30 minutes at 37° C. and then quenched by adding soybean trypsin inhibitor to a final concentration of 43.6 μg/mL. ZnCl2 was added to the reaction mixture for a total concentration of 0.24 μM.
(§2) Following preparation of the solution of activated stromelysin, assay solutions were prepared for each inhibitor being tested. A control was also prepared. First, […] of activated stromelysin (about 45 μL from the solution of activated stromelysin) were aliquotted per assay tube. A 2.5 mM solution in 100% dimethyl sulfoxide (DMSO) was prepared for each inhibitor being tested and 1 μL from each inhibitor solution was added to one of the assay tubes. In addition, 1 μL of 100% DMSO was added to the control assay tube. All assay tubes were then pre-incubated for 5 minutes.
(§3) 5 μL of a previously prepared 50 μM solution of substrate in 15% DMSO were added to each assay tube. The substrate was a methoxycumarin developed by Knight et al. FEBS Lett. 296:263-66 (1992). The tubes were then incubated for 60 minutes, at which time the reaction was stopped with the addition of 750 μL of 0.1M NaAc pH 4.0 buffer.
(§4) Substrate hydrolysis was assessed by fluorescence using a slit width of 10:10, excitation at 328 nm and emission at 393 nm. The results of these assays are listed in Table I as percent inhibition at 10 μM of the bile acid provided compound tested or as the IC50.
The assay procedure for gelatinase (72 (Kd) was the same as described in Example 13 for stromelysin except that the trypsin activation was performed for 60 minutes. In addition, the incubation of the assay tubes at 37° C. was for 60 minutes, and the final enzyme concentration was 3 nm. The results of these assays are listed in Table I as percent inhibition at 10 μM of the compound tested.

The target of assay [3] is stromelysin (Homo sapiens, UniProt P08254). Nature of the assay: Assay of Stromelysin Inhibition Activity (fluorogenic substrate hydrolysis). In kind it is biochemical. The note with it: for inhibition at 10 µM: read-out: percent inhibition of stromelysin. Here is the method:
as §1, §2, §3, §4

Assay [4] deals with collagenase. Nature of the assay: Assay of Collagenase Inhibition Activity. In kind it is biochemical. To be noted: at 10 μM of compound; 45 minutes at 37° C. Here is the method: as §1, §2, §3, §4
The assay procedure for collagenase was the same as described in Example 13 for stromelysin except that the trypsin activation was performed for 45 minutes. In addition, the incubation of the assay tubes at 37° C. was only for 45 minutes, and the final enzyme concentration is 6 nm. The results of these assays are provided in Table I as percent inhibition at 10 μM of the compound tested.

Assay [5] deals with chondrocytes. Nature of the assay: Chondrocyte Cell Culture Matrix Breakdown Assay (35S release, rhIL-1α stimulated). In kind it is cell-based, calf. To be noted: at 50 μM; rhIL-1α 1 ng/ml; 22-24 hours. Here is the method: A cell culture assay was used to measure the ability of compounds to slow the degradation of the extracellular matrix by a metalloproteinase. This assay measured the amount ^35 S released from chondrocytes grown in a media with ^35 S labeled sodium sulfate. The cell culture assay was carried out as follows:
Two or three 1 to 3 week old calf joints were obtained from an abattoir. The proximal end of the shank was at about 4-5" long to facilitate immobilization in the holder. The joint was kept cool and transported on ice. The exterior of the intact joints was washed well with a suitable anti-microbial soap, rinsed clean with warm water, rinsed in betadine and then finally rinsed with 70% ethanol. Up to this point all steps were done in a manner to ensure that the joint was kept as clean as possible. All subsequent steps were performed in a sterile field (i.e., in a Edgeguard laminar flow tissue culture hood). The joint was immobilized and the synovial fluid was aspirated with a needle and syringe. The joint was then cut open to expose the articular cartilage using a #21 scalpel. Using locking hemostats, forceps and a #15 scalpel, the cartilage was excised in full thickness pieces. Care was taken not to cut too deep because bleeding would have occurred if the subchondral bone, was penetrated. The cartilage pieces were placed into a 50 mL centrifuge tube containing 25 mL of Delbecco's phosphate buffered saline (D-PBS) supplemented with 1% antibiotic solution (penicillin, streptomycin and fungizone; GIBCO/BRL). The slices from each joint were then placed into separate 50 mL centrifuge tubes. The D-PBS was decanted and replaced with 25 mL of fresh D-PBS supplemented with antibiotics and subsequently agitated gently.
The cartilage pieces were transferred to a fresh 50 mL centrifuge tube and rinsed once more with 25 mL of D-PBS minus antibiotics. An enzymatic digestion solution containing 1 mg/mL of hyaluronidase in serum-free 1:1 DMEM/Ham's F-12 (DMEM/F12) was prepared. This solution was filter sterilized with […] Milex--GV filter and kept on ice until ready to use. The cartilage pieces were digested with approximately 5 mL of hyaluronidase solution per joint for 2×15 minutes at 37° C. in the 50 mL centrifuge tube with gentle agitation at the 15 minute mark. This procedure removed residual hyaluronic acid from the surface of the chips. The enzymatic digestion solution was then aspirated and the cartilage pieces were rinsed with 25 mL of D-PBS.
A second enzymatic digestion solution containing 2.5 mg trypsin and 2 mg collagenase P per mL serum-free DMEM/F12 was prepared. This solution was also filter sterilized with a […] Millex--GV filter and kept on ice until ready to use. The cartilage pieces were digested with approximately 5 mL of trypsin: collagenase solution per joint for 2×15 minutes at 37° C. in the 50 mL centrifuge tube with gentle agitation at the 15 minute mark. This procedure removed the synovial fibroblasts and any adherent connective tissue from the surface of the chips. The enzymatic digestion solution was then carefully removed and saved and the cartilage pieces were rinsed with 25 mL of D-PBS.
A third enzymatic solution containing 2 mgs of collagenase P (BMB) per mL serum-free DMEM/F12 was prepared. This solution was filter sterilized with a […] Millex--GV filter and kept on ice until ready to use. The pre-digested cartilage pieces were finally digested with approximately 20 mL of enzymatic digestion solution per joint for 5-6 hours at 37° C. in a Bellco stirring digestion flask, at which point the cartilage was fully digested away.
The enzymes in the synovial fibroblast and chondrocyte digest were neutralized by addition of an equal volume of DMEM/F12 supplemented with 5% fetal bovine serum. Fibroblasts were plated in DMEM at a cellular density of 6.6×10^3 cells per cm^2. […]

[6] abbreviates: at 10 μM of compound, 60 minutes at 37° C.
[7] abbreviates: at 50 μM, rhIL-1α 5 ng/mL, 3-4 days.

Read-outs that look alike come from different tables or passages of the source.

Sequence of stromelysin (P08254 100-477): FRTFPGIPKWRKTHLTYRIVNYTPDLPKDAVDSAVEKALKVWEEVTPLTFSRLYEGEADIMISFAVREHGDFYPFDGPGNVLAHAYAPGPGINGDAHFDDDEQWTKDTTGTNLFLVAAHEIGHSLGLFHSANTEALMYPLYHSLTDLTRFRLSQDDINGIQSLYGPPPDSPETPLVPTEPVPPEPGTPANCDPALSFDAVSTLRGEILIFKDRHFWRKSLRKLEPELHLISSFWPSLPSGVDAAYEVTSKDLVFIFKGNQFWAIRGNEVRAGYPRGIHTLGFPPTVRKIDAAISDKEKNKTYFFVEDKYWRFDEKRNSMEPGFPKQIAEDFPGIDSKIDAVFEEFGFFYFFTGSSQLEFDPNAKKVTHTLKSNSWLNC

`C[C@H](CCC(=O)O)[C@H]1CC[C@H]2[C@@H]3[C@H](O)C[C@@H]4C[C@H](O)CC[C@]4(C)[C@H]3C[C@H](O)[C@]12C` [Compound 7, Cholic acid, reference compound]: the inhibition at 50 µM in assay [1] was -90%. The inhibition at 10 µM in assay [2] is 4%; in assay [3], 24%. In addition, the “percent inhibition of collagenase” value in assay [4] stood at 21%.
Turning to `C[C@H](CCC(=O)NOCc1ccccc1)[C@H]1CC[C@H]2[C@@H]3CC[C@@H]4C[C@H](O)CC[C@]4(C)[C@H]3CC[C@]12C` [Compound 11, Lithocholyl-O-Benzylhydroxamate], the values for the inhibition at 10 µM in assay [2] (setting [6]) and in assay [3] (at 10 μM of compound) were 21% and 25%, respectively. For the same compound, the “percent inhibition of collagenase” value in assay [4] is given as 13%.
Regarding `CC(C)C(CC(=O)NO)NC(=O)CC[C@@H](C)[C@H]1CC[C@H]2[C@@H]3CC[C@@H]4C[C@H](O)CC[C@]4(C)[C@H]3CC[C@]12C` (stereo partly drawn) [Compound 21, Lithocholyl-β-Leucine Hydroxamic Acid], the concentration for half-maximal inhibition (IC50) in assay [2] (60 minutes at 37° C.) worked out at 7 µM; in assay [3] (60 minutes incubation) it was 3 µM. Besides, in assay [5], the “percent inhibition, Cell Culture” value worked out at 88%.
As for `C[C@H](CCC(=O)N[C@@H](Cc1c[nH]c2ccccc12)C(=O)O)[C@H]1CC[C@H]2[C@@H]3CC[C@@H]4C[C@H](O)CC[C@]4(C)[C@H]3CC[C@]12C` [Compound 17, Lithocholyl-(L)-Tryptophane], the inhibition at 50 µM in assay [1] is 8%. The inhibition at 10 µM in assay [2] is 5%.
As for `C[C@H](CCC(=O)N[C@@H](Cc1c[nH]c2ccccc12)C(=O)NO)[C@H]1CC[C@H]2[C@@H]3CC[C@@H]4C[C@H](O)CC[C@]4(C)[C@H]3CC[C@]12C` [Compound 18, Lithocholyl-(L)-Tryptophane Hydroxamic Acid], the inhibition at 50 µM in assay [1] (setting [7]) amounted to 3%. Moreover, the values for the inhibition at 10 µM in assay [2] (setting [6]) and in assay [3] (at 10 μM of compound) were 41% and 90%, respectively. Further, in assay [4], the “percent inhibition of collagenase” value is given as 35%.
Regarding `C[C@H](CCC(=O)O)[C@H]1CC[C@H]2[C@@H]3[C@H](O)C[C@@H]4C[C@H](O)CC[C@]4(C)[C@H]3CC[C@]12C` [Compound 6, Chenodeoxycholic acid, reference compound], in assay [1] (setting [7]), the inhibition at 50 µM came to 23%. Also, in assay [4], the “percent inhibition of collagenase” value came to 6%.
